Measured values as given in publication PMC3923778 (PLoS Currents, 2014).
“Also recorded” adds a separate entry of the source.

Tests used:
R6/2 mice = experiment: T2-MRI brain volumetry; type: in vivo, mouse; conditions: chronic administration, 13 weeks
Experimental: MRI analysis was performed for all mice at the age of 13 weeks in a horizontal 7T magnet with bore size 160 mm (Magnex Scientific Ltd., Oxford, UK) equipped with Magnex gradient set (max. gradient strength 400 mT/m, bore 100 mm) interfaced to a Varian DirectDrive console (Varian, Inc., Palo Alto, CA) using a volume coil for transmission and surface phased array coil for receiving (Rapid Biomedical GmbH, Rimpar, Germany). Isoflurane -anesthetized mice were fixed to a head holder and positioned in the magnet bore in a standard orientation relative to gradient coils. Rectal temperature (TC-1000 Temperature Controller, CWE Inc., Ardmore, PA, USA) and respiration (ECG Trigger Unit, Rapid Biomedical GmbH) were monitored throughout the study and the body temperature was kept at 36-37°C. […]
All values are presented as mean ± Standard Error of Mean (SEM), and differences are considered to be statistically significant at the p < 0.05 level. […] Differences between group means were analyzed by 1-way-ANOVA followed by Dunnett’s test (comparison to the control (=vehicle treated TG mice) group). The acquisition of the Cued two-choice swim test was analyzed using Fisher’s exact test.

PDE5 Cat = molecular target: T1, PDE5 Cat (Homo sapiens, UniProt O76074); experiment: IMAP PDE activity assay (Scottish Biomedical); type: biochemical; conditions: PDE5 Cat (catalytic domain)
T1 construct: using full length PDE5 versus the catalytic domain used in our assays; Scottish Biomedical (contract laboratory)

aggregated HTT = experiment: Seprion ligand based ELISA of aggregate load; type: in vivo, mouse; conditions: chronic administration; 13 weeks of age; lower dose group study
From the text: Aggregates were captured in Seprion ligand coated plates (Microsens) and detected using the S830 sheep polyclonal or MW8 mouse monoclonal antibodies as described.

R6/2 hippocampal slices = experiment: Electrophysiological evaluation in R6/2 hippocampal slices (MEA, fEPSP); set-up: species or system mouse
Experimental: Electrophysiology was conducted at Neuroservice SARL, France. All animals were group housed under environmentaly enriched conditions and used in accordance with European legislations for animal care. On the day of recording, 7-8 week old R6/2 or wild type littermate (WT) mice were decapitated without anaesthesia followed by rapid brain removal into ice-cold oxygenated buffer (in mM; saccharose, 250, KCl 2, NaH2PO4 1.2, MgCl2 7, CaCl2 0.5, NaHCO3 26, glucose 11). Hippocampal slices (350 μm thickness) were prepared with a MacIlwain tissue-chopper and incubated at room temperature (RT, 18 – 22 °C) and allowed to recover for at least 1 h prior to recording in oxygenated Artificial Cerebro-Spinal Fluid (ACSF) of the following composition: (in mM; NaCl, 126, KCl 3.5, NaH2PO4 1.2, MgCl2 1.3, CaCl2 2, NaHCO3 25, D-glucose 11, pH 7.2). For experiments, individual slices were transferred to a 3-dimensional 60 electrode MEA chip (Ayanda Biosystems, Lausanne, Switzerland) and continuously perfused with oxygenated (95% O2–5% CO2) ACSF at 37 °C at a rate of 3 mlmin^-1, allowing for complete solution exchange within the MEA chamber 20 s following solution switches (MEA chamber volume: ~1 mL).
For stimulation, one MEA electrode underlying the Schaeffer collaterals at the CA3/CA1 interface was chosen visually as the stimulating electrode. The stimulus consisted of a monopolar biphasic current pulse (negative for 60 μs and then positive for 60 μs) applied at a frequency of 0.03 Hz. Recordings of resultant field excitatory postsynaptic potentials (fEPSPs) from electrodes underlying the CA1 region were made using MultiChannel Systems MCS GmbH software (MC Stim, MS Rack) and hardware composed of a 4-channel stimulus generator and a 60-channel amplifier head-stage connected to a 60-channel A/D card (Reutlingen, Germany). […] Paired pulse facilitation (PPF) was then assessed at 40 % of the maximal fEPSP amplitude response (as defined from the I/O curve) by delivering two pulses to the stimulating electrode with decreasing inter-stimulus intervals (ISI of 300 ms, 200 ms, 100 ms, 50 ms, 25 ms). PPF was performed 4 times per slice, and the resultant 4 fEPSP amplitudes at a given ISI were averaged together. […]
For measurement of long term potentiation (LTP), basal fEPSPs were recorded at 0.03 Hz for ten minutes at 40 % of maximal FEPSP amplitude to verify the baseline stability. […] Potentiation of fEPSP amplitude was then monitored for an additional 60 minute period. […]
For each slice, the fEPSP values at each electrode recorded within the CA1 region were averaged to obtain a single fEPSP value per slice per timepoint. […] Data was analysed using Repeat Measure Two-way ANOVA followed by a post hoc Bonferroni test to analyse statistical significance of single data points using Prism 5.0 software. […]

PDE2 = test system: PDE2; set-up: method as in PMID 9216839, PMID 17697115, PMID 10618442, PMID 8961086, PMID 7581878; conditions: ref [12], [23], [25], [27], [28], read-out: previously reported potencies; cited from earlier work

SMILES: CN1C(=O)c2nc(Cc3ccc(C(F)(F)F)cc3)[nH]c2N2C1=N[C@H]1CCC[C@H]12 [SCH-51866, (+)-cis-5,6a,7,8,9,9a-hexahydro-2-[4-[trifluro-methyl]phenylmethyl]-5-methyl-cylopent[4,5]imidazo [2,1-b]purin-4(3H)one]
- brain volume, cortex (MRI) (R6/2 mice): no improvement in brain volume
- brain volume, striatum (MRI) (R6/2 mice): no improvement in brain volume
- IC50 (PDE5 Cat): 2.84 µM
- aggregate load in the cortex and hippocampus (Seprion ligand ELISA) (aggregated HTT): no effect
- basal synaptic transmission (input/output characteristics) (R6/2 hippocampal slices; 3 µM, R6/2 slices): no significant effect; also recorded: did not significantly reduce
- paired pulse facilitation (PPF) (R6/2 hippocampal slices; 3 µM, R6/2 slices): restored R6/2 paired-pulse facilitation (PPF) to WT levels; also recorded: significantly restored to WT levels
- long-term potentiation (LTP) (R6/2 hippocampal slices; 3 µM, R6/2 slices, vs ACSF alone): did not restore the deficit; also recorded: did not result in an amplitude of LTP significantly different
- electrophysiological parameters in hippocampal slices, overall (R6/2 hippocampal slices; concentration sufficient to fully inhibit the PDE1 enzyme): does not improve
- IC50 (PDE2): 2 µM
